Laboratory results reported in patent US12685754B2, “Method of fixating and stabilizing nitric oxide metabolites through fermentation of nitrogen-containing natural substance” (priority 2019, dated 2026).
Entries after “also recorded” stand apart in the source; their conditions may differ.

Columns and labels:
[1] = Release of nitric oxide at reducing condition mimicking the intestinal condition of human body; assay type: physicochemical; conditions: vitamin C and sodium chloride in phosphate buffer solution
Description: (§1) To figure the optimum fermentation condition allowing fixating and stabilization of the nitric oxide metabolites at the highest level, production amount of nitric oxide metabolites was examined depending on various fermentation temperatures, dissolved oxygen concentrations (level), and chemical oxygen demands. For measuring the nitric oxide metabolites, amount of nitric oxide was measured under acidic condition and also reducing condition using a chemical method and calculation was made for the nitric oxide metabolites. As for the acidic condition, a condition mimicking human stomach was created using hydrochloride (HCl) solution with sodium chloride (NaCl) and potassium chloride (KCl), and then nitric oxide metabolites were released in the solution. […] Thereafter, by using a nitric oxide detector (Sievers Nitric Oxide Analyzer 280i), amount of the nitric oxide metabolites fixated in fermented substance was measured.
(§2) As a test material, a fermented substance using garlic, cabbage, onion, bean sprouts, lettuce, soybean, or cricket, and sodium nitrite were used. […] As a result, from all samples other than sodium nitrite (residual nitrite ion concentration of 5 mg/L), nitrite ion was not detected.

[2] = Release of nitric oxide at acidic condition like artificial stomach; assay type: physicochemical; conditions: HCl solution with NaCl and KCl; Sievers Nitric Oxide Analyzer 280i
Description: as §1, §2

[3] = tested on: test animal of diabetes (STZ); assay: Blood markers of diabetes and diabetes complications after 4 weeks of administration (Example 9-4); assay type: in vivo, C57BL/6 mouse; conditions: 4 weeks once a day, NaNO2 oral, test sample rectal
Description: (§3) As a test animal, 4-week-old male C57BL/6 mouse was obtained from Samtako (South Korea) and used. The test animals were acclimated for 1 week under the same breeding chamber condition as Example 5 above. The acclimated C57BL/6 mouse was then intraperitoneally injected once with STZ (streptozotocin; Sigma-Aldrich, USA) solution, which has been prepared at concentration of 120 mg/kg in 0.1 M citrate buffer (pH 4.5), to induce diabetes. Two weeks after administering STZ, the mouse was fasted for 16 hours and blood was taken from tail vein of the test animal to measure fasting blood glucose using a simple blood glucose meter (Glucotrend, Roche, Germany). […] Body weight, feed intake amount, and blood glucose level were measured twice a week. After one week, blood glucose level was measured again and test animals which maintained fasting blood glucose of not less than 200 mg/dL were selected and used for the test.
(§4) In this example, fermented liquid obtained by fermenting Korean garlic was used for the test after concentration. Content of the nitric oxide metabolites in garlic fermentation concentrate which has been obtained after concentration was adjusted such that it is 200 ppm or higher in terms of NO2^−. It is preferable that the concentration step is carried out for 24 hours to 48 hours at temperature of 20° C. to 30° C. and stirring speed of 100 rpm to 300 rpm.
To the test animal of diabetes prepared in Example 6, NaNO2 was administered orally once a day for 4 weeks or the test sample (garlic fermentation concentrate obtained by concentration) was administered rectally also once a day for 4 weeks. On the last day of test, blood was collected from all test animals to complete the test. After that, content of blood glucose, glycated hemoglobin, insulin, creatinine, and urea nitrogen in the collected blood were measured by using a diagnostic kit. Specifically, the blood glucose, glycated hemoglobin, and insulin of Table 3 were used for determining and analyzing the anti-diabetes effect, while creatinine and urea nitrogen of Table 3 were used for determining and analyzing the effect of alleviating the symptoms of diabetes complications. A decrease in kidney function is one of the diabetes complications, and creatinine and urea nitrogen are a clinical biomarker for measuring the kidney function.

[4] = samples collected after measurement at acidic or reduction condition
Description: as §2

[5] = tested on: rat injected with DOCA (high blood pressure); assay: Blood pressure-lowering effect in test animal of high blood pressure (Example 9-2); assay type: in vivo, Sprague Dawley (SD) rat; conditions: 15-120 minutes; NaNO2 oral 18.6 mg/kg, test sample rectal 12.5 mg/kg as NO2-; once a day for 4 weeks
Description: The acclimated SD rat (8-week-old) was intraperitoneally injected with DOCA (deoxycorticosterone acetate; […] To determine an occurrence of high blood pressure, blood pressure was measured by using tail-cuff plethysmography (Muromachi Kikai, Japan), and animals with systolic blood pressure of at least 140 mmHg were selected and used for the test. When various plants rich in polyphenol are used, it is possible to obtain fermentation liquid containing both nitric oxide metabolites and polyphenol. In this example, fermented liquid obtained by fermenting Korean garlic was used for the test after concentration. Content of the nitric oxide metabolites in garlic fermentation concentrate which has been obtained after concentration was adjusted such that it is 200 ppm or higher in terms of NO2^−. It is preferable that the concentration step is carried out for 24 hours to 48 hours at temperature of 20° C. to 30° C. and stirring speed of 100 rpm to 300 rpm.

[6] = tested on: mouse injected with STZ (diabetes); assay: Oral glucose tolerance test for test animal of diabetes (Example 9-3); assay type: in vivo, C57BL/6 mouse; conditions: glucose 2 g/kg; 15-120 minutes; NaNO2 oral 18.6 mg/kg, test sample rectal 12.5 mg/kg; once a day for 4 weeks
Description: as §3, §4

[7] = tested on: mouse with DNFB-induced atopic dermatitis; assay: DNFB-induced atopic dermatitis mouse: visual examination, ear swelling, histopathology; assay type: in vivo, Balb/c mouse; conditions: histopathological test, H&E, last day of test; control DNFB + DW 843.17 ± 55.22
Description: As a test animal, 5-week old male Balb/c mouse was obtained from Samtako (South Korea) and, after acclimatization for 1 week, used for the test. The breeding chamber for test animal has controlled light and darkness cycle with an interval of 12 hours, and temperature was maintained at 23±2° C. and humidity was maintained at 50 to 60%.
Cabbage fermentation extract was used as a test sample of the test, and, specifically, fermented cabbage which has been prepared according to the method of the present invention was frozen at −80° C. and freeze-dried for 5 days (PVTFD10R, Ilshin Lab, Korea). Thus-obtained powder was dissolved in distilled water and used as a test sample. […]
Anti-atopic effect was analyzed based on visual examination, ear swelling, measurement of interferon γ in blood serum, and histopathological examination. […]

| Compound | release amount of nitric oxide at reducing condition mimicking the intestinal condition of human body [1] | release amount of nitric oxide at acidic condition like artificial stomach [2] | Creatinine ([3]; control group 0.25 ± 0.05) | Glycated hemoglobin ([3]; control group 7.5 ± 0.3) | Urea nitrogen ([3]; control group 43.2 ± 0.8) | Insulin ([3]; control group 80.0 ± 10.7) | Fasting blood glucose ([3]; control group 480.0 ± 6.0, normal 106.0 ± 5.0) | residual nitrite ion concentration [4] | change in blood pressure over time [5] | blood glucose level in OGTT [6] | Ear thickness [7] |
| --- | --- | --- | --- | --- | --- | --- | --- | --- | --- | --- | --- |
| O=N[O-].[Na+] [NaNO2, sodium nitrite] | 488.4 mg/L | 130.7 mg/L | 0.18 ± 0.03 mg/dL | 6.2 ± 0.3% | 37.1 ± 0.5 mg/dL | 150.0 ± 9.5 ng/mL | 320.0 ± 11.0 mg/dL | 5 mg/L | rapid decrease in blood pressure; also recorded: after the sharp decrease in initial blood pressure, the blood pressure has dramatically increased again | rapid decrease in blood glucose level; also recorded: no further decrease in the blood glucose level |  |
| citrate [DNFB + CA] |  |  |  |  |  |  |  |  |  |  | 593.17 ± 71.27 μm |
| nitrite [DNFB + N] |  |  |  |  |  |  |  |  |  |  | 463.67 ± 77.08 μm |
